Results published in the NIST ThermoML archive (doi:10.1021/je400431e).

Assay: mn = molality of the nth substance listed, in mol/kg
Settings: 298 K, Ring tensiometer

CCCCCCCCCCCC[N+](C)(C)C.[Cl-] [N,N,N-trimethyl-1-dodecanaminium chloride] + O
Settings | surface tension liquid-gas [mN/m]
m1 = 3e-05 | 56.38
m1 = 5e-05 | 51.17
m1 = 7e-05 | 47.18
m1 = 0.0001 | 41.7
m1 = 0.00015 | 35.66
m1 = 0.0002 | 31.91
m1 = 0.0003 | 28.13
m1 = 0.0005 | 25.41
m1 = 0.0007 | 25.28
m1 = 0.001 | 25.68
m1 = 0.0013 | 25.4
m1 = 0.0016 | 25.52

CCCCCCCCCCCCOS(=O)(=O)[O-].[Na+] [sodium dodecyl sulfate] + O
Settings | surface tension liquid-gas [mN/m]
m1 = 0.00013 | 66.84
m1 = 0.00031 | 60.83
m1 = 0.00102 | 52.39
m1 = 0.00303 | 45.05
m1 = 0.00501 | 40.55
m1 = 0.007 | 38.58
m1 = 0.008 | 37.41
m1 = 0.009 | 37.73
m1 = 0.01 | 37.99
m1 = 0.012 | 37.76
